The test system of one assay is Acinetobacter baumannii. The assay can be described thus: microbe, parasite or virus in culture. The conditions noted are these: ATCC 19606, 18 h, ASSAY_TEST Inhibition of Bacterial Growth, detection method Absorption (OD600), MEDIA CAMHB, plate type 384well, NBS, CORNING #3640.
Another assay concerns Pseudomonas aeruginosa. The assay can be described thus: microbe, parasite or virus in culture. The following applies: ATCC 27853, 18 h, ASSAY_TEST Inhibition of Bacterial Growth, detection method Absorption (OD600), MEDIA CAMHB, plate type 384well, NBS, CORNING #3640.
Assay [1] has as its system Staphylococcus aureus. The assay can be described thus: microbe, parasite or virus in culture. The conditions noted are these: ATCC 43300, 18 h, ASSAY_TEST Inhibition of Bacterial Growth, detection method Absorption (OD600), MEDIA CAMHB, plate type 384well, NBS, CORNING #3640.
Description: (§1) Antibacterial activity against Staphylococcus aureus MRSA ATCC 43300 (CO-ADD:GP_020); MIC in CAMBH media, using NBS plates, by OD(600)
The next assay has as its system Klebsiella pneumoniae. The assay can be described thus: microbe, parasite or virus in culture. The conditions noted are these: ATCC 700603, 18 h, ASSAY_TEST Inhibition of Bacterial Growth, detection method Absorption (OD600), MEDIA CAMHB, plate type 384well, NBS, CORNING #3640.
The next assay has as its system HEK293. In words: cells. The format is functional, Homo sapiens, ATCC CRL1573. The following applies: ASSAY_TEST Inhibition of Cell Viability, detection method Resazurin, Fluorescence (ex560/em590), MEDIA DMEM with 10% FBS, plate type 384well, TC, CORNING #3712, time 18 hr.
The test system of assay [2] is Candida albicans. The assay can be described thus: microbe, parasite or virus in culture. The conditions noted are these: ATCC 90028, ASSAY_TEST Inhibition of Fungal Growth, detection method Absorption (OD530), plate type 384well, NBS, CORNING #3640.
Description: (§2) Antifungal activity against Candida albicans ATCC 90028 (CO-ADD:FG_001); MIC in YNB media using NBS plates, by OD630
A further assay deals with Escherichia coli. In words: microbe, parasite or virus in culture. The following applies: ATCC 25922, 18 h, ASSAY_TEST Inhibition of Bacterial Growth, detection method Absorption (OD600), MEDIA CAMHB, plate type 384well, NBS, CORNING #3640.
Assay [3] concerns Candida albicans. The conditions noted are these: ASSAY_TEST Inhibition of Fungal Growth; detection method Absorption (OD530); plate type 384well; NBS; CORNING #3640.
Description: as §2
For assay [4], the system named is Staphylococcus aureus. The conditions noted are these: ASSAY_TEST Inhibition of Bacterial Growth, detection method Absorption (OD600), MEDIA CAMHB, plate type 384well, NBS, CORNING #3640, time 18 hr.
Description: as §1
The mark [5] stands for this setting: Homo sapiens, ATCC CRL1573, HEK293, read-out: CC50.

Converted amounts (≈) assume the structure as drawn. “And” between values parts separate entries of the source, which are not always exact repeats. Equal values may be shown once. Some results are limits rather than exact numbers.

A word on the CC50: it is the concentration at which the toxic effect on the cells reaches its halfway point.

Description for Acinetobacter baumannii: Antibacterial activity against Acinetobacter baumannii ATCC 19606 (CO-ADD:GN_034); MIC in CAMBH media using NBS plates, by OD600
Description for Cryptococcus neoformans: Antifungal activity against Cryptococcus neoformans H99 ATCC 208821 (CO-ADD:FG_002); MIC in YNB media using NBS plates, by Resazurin OD(600-570)
Description for Escherichia coli: Antibacterial activity against Escherichia coli ATCC 25922 (CO-ADD:GN_001); MIC in CAMBH media using NBS plates, by OD(600)
Description for Klebsiella pneumoniae: Antibacterial activity against Klebsiella pneumoniae MDR ATCC 70063 (CO-ADD:GN_003); MIC in CAMBH media using NBS plates, by OD(600)
Description for Pseudomonas aeruginosa: Antibacterial activity against Pseudomonas aeruginosa ATCC 27853 (CO-ADD:GN_042); MIC in CAMBH media using NBS plates, by OD(600)

As to `COCCOC1CCN(CCNC(=O)c2cc(NC(=O)c3cc(NC(=O)c4ccc(/C=C/c5ccc6nonc6c5)cc4)cn3C)cn2C)CC1.O=S(=O)(O)O`, the MIC in the assay on Acinetobacter baumannii, against Cryptococcus neoformans, in the assay on Pseudomonas aeruginosa, in the assay with Staphylococcus aureus [1], against Klebsiella pneumoniae and in the assay on Candida albicans [2] was > 32 µg/mL throughout. The MIC with Escherichia coli is > 32 µg/mL. The CC50 with HEK293 (setting [5]) was determined as 3.84 µg/mL.
As to `CC(C)CCc1sc(NC(=O)c2cc(NC(=O)c3cc(NC(=N)c4ccccc4)cn3C)cn2C)nc1C(=O)NCCCN(C)C.O=C(O)C(F)(F)F.O=C(O)C(F)(F)F`, the MIC with Acinetobacter baumannii is > 32 µg/mL; with Cryptococcus neoformans, 4 µg/mL; in the assay on Pseudomonas aeruginosa it was > 32 µg/mL; against Staphylococcus aureus [1], > 32 µg/mL; in the assay on Klebsiella pneumoniae, > 32 µg/mL; in the assay with Candida albicans [2] it was > 32 µg/mL. Moreover, the MIC against Escherichia coli was > 32 µg/mL. Further, the CC50 with HEK293 (setting [5]) is > 32 µg/mL.
For the compound `COCCOC1CCN(CCNC(=O)c2cc(NC(=O)c3cc(NC(=O)c4ccc(/C=C/c5cnc6ccccc6c5)cc4)cn3C)cn2C)CC1`, the MIC is > 32 µg/mL against Acinetobacter baumannii; > 32 µg/mL with Cryptococcus neoformans; > 32 µg/mL against Pseudomonas aeruginosa; 0.5 µg/mL (≈ 0.71 µM) in the assay on Staphylococcus aureus [1]; > 32 µg/mL in the assay with Klebsiella pneumoniae; > 32 µg/mL in the assay with Candida albicans [2]. The MIC with Escherichia coli is > 32 µg/mL. In addition, in the assay with HEK293 (setting [5]), the CC50 amounted to 1.96 µg/mL (≈ 2.78 µM).
For `COc1cccc(/C=C/c2ccc(C(=O)Nc3cc(C(=O)Nc4cc(C(=O)NCCC(=N)N)n(C)c4)n(C)c3)cc2)c1.O=C(O)C(F)(F)F`, the MIC is > 32 µg/mL in the assay on Acinetobacter baumannii; > 32 µg/mL against Pseudomonas aeruginosa; 8 µg/mL against Staphylococcus aureus [1]; > 32 µg/mL in the assay on Klebsiella pneumoniae; > 32 µg/mL in the assay with Candida albicans [2]; 16 µg/mL and 32 µg/mL against Candida albicans [3]. The MIC is 4 µg/mL in the assay on Staphylococcus aureus [4] and > 32 µg/mL with Escherichia coli. The CC50 was 10.1 µg/mL and 10.7 µg/mL in the assay on HEK293; 15.8 µg/mL in the assay with HEK293 (setting [5]).
`COc1ccc(/C=C/c2ccc(C(=O)Nc3cc(C(=O)Nc4cc(C(=O)NCCN5CCCCC5)n(CCCc5ccccc5)c4)n(C)c3)cn2)cc1.O=C(O)C(F)(F)F.O=C(O)C(F)(F)F`: the MIC was > 32 µg/mL in the assay with Acinetobacter baumannii; 16 µg/mL against Cryptococcus neoformans; > 32 µg/mL in the assay with Pseudomonas aeruginosa; > 32 µg/mL in the assay on Staphylococcus aureus [1]; > 32 µg/mL with Klebsiella pneumoniae; > 32 µg/mL in the assay on Candida albicans [2]. Further, in the assay with Escherichia coli, the MIC is > 32 µg/mL. Also, the CC50 with HEK293 (setting [5]) was > 32 µg/mL.
Take `CC(C)n1cc(NC(=O)c2cc(NC(=O)c3cc4ccccc4oc3=O)cn2C)cc1C(=O)Nc1cc(C(=O)NCCCN(C)C)n(C)c1.O=C(O)C(F)(F)F`: the MIC was > 32 µg/mL with Acinetobacter baumannii; 32 µg/mL against Cryptococcus neoformans; > 32 µg/mL with Pseudomonas aeruginosa; > 32 µg/mL with Staphylococcus aureus [1]; > 32 µg/mL against Klebsiella pneumoniae; > 32 µg/mL with Candida albicans [2]. Further, the MIC in the assay on Escherichia coli was > 32 µg/mL. Also, the CC50 in the assay on HEK293 (setting [5]) was > 32 µg/mL.
`CC(=O)/C=C/c1ccc(C(=O)Nc2cc(C(=O)Nc3cc(C(=O)NCCN4CCOCC4)n(C)c3)n(C)c2)cc1.O=C(O)C(F)(F)F`: the MIC against Acinetobacter baumannii, with Cryptococcus neoformans, against Pseudomonas aeruginosa, in the assay with Staphylococcus aureus [1], in the assay with Klebsiella pneumoniae and against Candida albicans [2] was > 32 µg/mL in each case. Besides, the MIC against Escherichia coli was > 32 µg/mL. Moreover, the CC50 in the assay with HEK293 (setting [5]) was found to be 7.01 µg/mL.
With `CN(C)CCNC(=O)c1cc(NC(=O)c2cc(NC(=O)c3ccc(/C=C/c4cnc5ccccc5c4)cc3)cn2C)cn1C.O=C(O)C(F)(F)F.O=C(O)C(F)(F)F`, the MIC was > 32 µg/mL with Acinetobacter baumannii; 16 µg/mL in the assay with Cryptococcus neoformans; > 32 µg/mL against Pseudomonas aeruginosa; 0.5 µg/mL with Staphylococcus aureus [1]; > 32 µg/mL in the assay on Klebsiella pneumoniae; 32 µg/mL against Candida albicans [2]. The MIC against Candida albicans [3] was 32 µg/mL and >32 µg/mL; in the assay with Staphylococcus aureus [4] it was 1 µg/mL; against Escherichia coli, > 32 µg/mL. Moreover, the CC50 in the assay with HEK293 was 4.83 µg/mL and 2.72 µg/mL and 6.4 µg/mL.

The values are drawn from ChEMBL document CHEMBL4513139, “CO-ADD screening of University of Strathclyde (UK) compounds”.
